Experimental findings from US6642222B2, “Pyrano, piperidino, and thiopyrano compounds and methods of use” (Abbott Laboratories, priority 1998, dated 2003) are described below.

One experiment relates to Landrace Pig Bladder. Kind of experiment: Functional potassium channel opening activity in isolated bladder strips (field-stimulated twitch). The conditions noted are these: for Index: ED50 for P1075 divided by ED50 for the test agonist, averaged over tissues; for Emax / EC50: Sus scrofa; for Emax: maximal efficacy relative to P1075, field stimulated bladder strips; for EC50: negative logarithm of ED50, read-out: pD2 (converted). How it is done: Compounds were evaluated for functional potassium channel opening activity using tissue strips obtained from Landrace pig bladders. Landrace pig bladders were obtained from female Landrace pigs of 9-30 kg. Landrace pigs were euthanized with an intraperitoneal injection of pentobarbital solution, Somlethal®, J. A. Webster Inc. Sterling Mass. The entire bladder was removed and immediately placed into Krebs Ringer bicarbonate solution (composition, mM: NaCl, 120; […] Dextrose, 4.7; […] Propranolol (0.004 mM) was included in all of the assays to block β-adrenoceptors. The trigonal and dome portions were […], Strips 3-5 […] (mm) wide and 20 mm long were prepared from the remaining tissue cut in a circular fashion. The mucosal layer was removed. One end was fixed to a stationary glass rod and the other to a Grass FT03 transducer at a basal preload of 1.0 g. Two parallel platinum electrodes were included in the stationary glass trod to provide field stimulation of 0.05 Hz, 0.5 milli-seconds at 20 volts. […] Tissues were allowed to equilibrate for at least 60 minutes and primed with 80 mM KCl. A control concentration response curve (cumulative) was generated for each tissue using the potassium channel opener […] as the control agonist. […] After a 60 minute rinsing period, a concentration response curve (cumulative) was generated for the test agonist in the same fashion as that used for the control agonist […]. The maximal efficacy of each compounds (expressed as % relative to […]) is reported. The amount of agent necessary to cause 50% of the agent's maximal response (ED50) was calculated using “ALLFIT” (DeLean et al., Am. J. […] Agonist potencies were also expressed as an index relative to […]. The index was calculated by dividing the ED50 for […] by the ED50 for the test agonist in a given tissue. Each tissue was used for only one test agonist, and the indices obtained from each tissue were averaged to provide an average index of potency.

The subject of experiment [1] is Guinea-Pig Bladder (GPB) Cells. Kind of experiment: Membrane Hyperpolarization (MHP) assay, DiBAC(4)3 / FLIPR. The conditions noted are these: for EC50: membrane hyperpolarization, GPB cells; for Emax: read-out: Maximal Response (% P1075), maximal steady-state hyperpolarization, normalized to 10 μM P1075 (100%); for Maximal Response (% P1075): maximal steady-state hyperpolarization, normalized to 10 μM P1075 (100%).
Experimental: Compounds were evaluated for potassium channel opening activity using primary cultured guinea-pig urinary bladder (GPB) cells.
For the preparation of urinary bladder smooth muscle cells, urinary bladders were removed from male guinea-pigs (Hartley, Charles River, Wilmington, Mass.) weighing 300-400 grams (g) and placed in ice-cold Ca^2+-free Krebs solution (Composition, millimolar (mM): KCl, 2.7; KH2PO4, 1.5; NaCl, 75; Na2HPO4, 9.6; Na2HPO4.7H2O, 8; MgSO4, 2; glucose, 5; HEPES, 10; pH 7.4). Cells were isolated by enzymatic dissociation (Klockner, U. and Isenberg, G., Pflugers Arch. (1985), 405, 329-339). The bladder was cut into small sections and incubated in 5 milliliters (mL) of the Kreb's solution containing 1 milligram per milliliter (mg/mL) of collagenase (Sigma, St. Louis, Mo.) and 0.2 mg/mL of pronase (Calbiochem, La Jolla, Calif.) with continuous stirring in a cell incubator for 30 minutes. The mixture was then centrifuged at 1300× g for 5 minutes, and the pellet resuspended in Dulbecco's phosphate buffered saline (PBS) (GIBCO, Gaithersburg, Md.) and recentrifuged to remove residual enzyme. The cell pellet was resuspended in 5 mL growth media (composition: Dulbecco's modified Eagle's medium supplemented with 10% fetal bovine serum, 100 units/mL penicillin, 100 units/mL streptomycin and 0.25 mg/mL amphotericin B) and further dissociated by pipetting the suspension through a flame-polished Pasteur pipette and passing it through a polypropylene mesh membrane (Spectrum, Houston, Tex.). The cell density was adjusted to 100,000 cells/mL by resuspension in growth media. Cells were plated in clear-bottomed black 96-well plates (Packard) for membrane potential studies at a density of 20,000 cells/well and maintained in a cell incubator with 90% air: 10% CO2 until confluent. Cells were confirmed to be of smooth muscle type by cytoskeletal staining using a monoclonal mouse anti human-α-smooth muscle actin (Biomeda, Foster City, Calif.).
Functional activity at potassium channels was measured by evaluating changes in membrane potential using the bis-oxonol dye DiBAC(4)3 (Molecular Probes) in a 96-well cell-based kinetic assay system using a Fluorescent Imaging Plate Reader (FLIPR) (K. S. Schroeder et al., J. Biomed. Screen., v. 1 pp. 75-81 (1996)). DiBAC(4)3 is an anionic potentiometric probe which partitions between cells and extracellular solution in a membrane potential-dependent manner. With increasing membrane potential (for example, K^+ depolarization), the probe further partitions into the cell; this is measured as an increase in fluorescence due to dye interaction with intracellular lipids and proteins. Conversely, decreasing membrane potential (hyperpolarization by potassium channel openers) evokes a decrease in fluorescence.
Confluent guinea-pig urinary bladder cells cultured in black clear-bottomed 96-well plates were rinsed twice with 200 mL assay buffer (composition, mM: HEPES, 20; NaCl, 120; KCl, 2; CaCl2, 2; MgCl2, 1; glucose, 5; pH 7.4 at 25° C.) containing 5 μM DiBAC(4)3 and incubated with 180 mL of the buffer in a cell incubator for 30 minutes at 37° C. to ensure dye distribution across the membrane. After recording the baseline fluorescence for 5 minutes, the reference or test compounds, prepared at 10 times the concentration in the assay buffer, were added directly to the wells. Changes in fluorescence were monitored for an additional 25 minutes.
Routinely, five concentrations of P1075 or test compounds (log or half-log dilutions) were evaluated and the maximal steady-state hyperpolarization values (expressed as % relative to P1075) plotted as a function of concentration. The EC50 (concentration that elicites 50% of the maximal response for the test sample) values were calculated by non-linear regression analysis using a four parameter sigmoidal equation. The maximal micromolar EC50 response of each compound (expressed as % relative to P1075) is reported.

Where a name gives a salt, the structure may show the parent alone.

With `O=C1COCC2=C1[C@@H](c1ccc(F)c(Br)c1)C1=C(COC1=O)N2` (single isomer, unassigned) [Example 42], in the experiment on Landrace Pig Bladder, the Index is 0.17, the Emax amounted to 95% and the EC50 is 631 nM. In experiment [1] (Cavia porcellus), the EC50 was determined as 26 nM and the Emax amounted to 102%.

In the case of `O=C1COCC2=C1[C@H](c1ccc(F)c(Br)c1)C1=C(COC1=O)N2` (single isomer, unassigned) [Example 43], in the experiment on Landrace Pig Bladder, the Index came out at 0.68, the Emax came out at 88% and the EC50 was 200 nM. In addition, in experiment [1] (Cavia porcellus), the EC50 worked out at 11 nM and the Emax was found to be 98%.

In the case of `O=C1COCC2=C1[C@H](c1ccc(F)c(I)c1)C1=C(COC1=O)N2` (single isomer, unassigned) [Example 78], in the experiment on Landrace Pig Bladder, the Index is 0.79, the Emax amounted to 96% and the EC50 is 79.4 nM. Also, in experiment [1] (Cavia porcellus), the EC50 turned out to be 4.9 nM and the Emax came to 97%.

Consider `O=C1COCC2=C1[C@@H](c1ccc(F)c(I)c1)C1=C(COC1=O)N2` (single isomer, unassigned) [Example 79], for which, in the experiment on Landrace Pig Bladder, the Index was 0.40, the Emax is 95% and the EC50 is 158 nM. Besides, in experiment [1] (Cavia porcellus), the EC50 amounted to 14 nM and the Emax was 90%.

In the case of `Cc1ccc([C@H]2C3=C(COCC3=O)NC3=C2C(=O)OC3)cc1Br` (single isomer, unassigned) [Example 81], in the experiment with Landrace Pig Bladder, the Index was 0.23, the Emax was 93% and the EC50 was 398 nM.

Turning to `Cc1ccc(C2C3=C(COCC3=O)NC3=C2C(=O)OC3)cc1I` (single isomer, unassigned) [Example 82, 9-(3-iodo-4-methylphenyl)-5,9-dihydro-3H-furo [3,4-b]pyrano[4,3-e]pyridine-1,8(4H,7H)-dione], in the experiment with Landrace Pig Bladder, the Index was determined as 1.4, the Emax was 98% and the EC50 is 31.6 nM.

For `N#Cc1cccc(C2C3=C(COCC3=O)NC3=C2S(=O)(=O)CC3)c1` (single isomer, unassigned; (-)) [Example 16, (−) 9-(3-cyanophenyl)-2,3,5,9-tetrahydro-4H-pyrano [3,4-b]thieno[2,3-e]pyridin-8(7H)-one 1,1-dioxide], in experiment [1], the “Maximal Response (% P1075)” value came to 57 % P1075 and the EC50 turned out to be 8800 nM.

With `O=C1CNCC2=C1C(c1ccc(F)c(Br)c1)C1=C(CNCC1=O)N2` [Example 4, 5-(3-bromo-4-fluorophenyl)-2,3,5,8,9,10-hexahydropyrido [3,4-b][1,7]naphthyridine-4,6(1H,7H)-dione Dihydrochloride], the Emax in experiment [1] (Cavia porcellus) was 21%.

With `N#Cc1cccc(C2C3=C(COCC3=O)NC3=C2S(=O)(=O)CC3)c1` (stereo not drawn) [Example 14, 9-(3-cyanophenyl)-2,3,5,9-tetrahydro-4H-pyrano[3,4-b]thieno[2,3-e]pyridin-8(7H)-one 1,1-dioxide], in experiment [1], the “Maximal Response (% P1075)” value is 99 % P1075 and the EC50 came out at 400 nM.

Turning to `O=C1COCC2=C1C(c1ccc(Cl)c([N+](=O)[O-])c1)C1=C(CCS1(=O)=O)N2` (stereo not drawn) [Example 17, 9-(4-chloro-3-nitrophenyl)-2,3,5,9-tetrahydro-4H-pyrano[3,4-b]thieno[2,3-e]pyridin-8(7H)-one 1,1-dioxide], in experiment [1] (Cavia porcellus), the Emax was 93%. Besides, the EC50 in experiment [1] was determined as 4.2 nM.

Take `O=C1COCC2=C1C(c1ccc(F)c(Br)c1)C1=C(CCCS1(=O)=O)N2` (stereo not drawn) [Example 21, 10-(3-bromo-4-fluorophenyl)-3,4,6,10-tetrahadro-2H,5H-pyrano[3,4-b]thioyrano[2,3-e]pyridin-9(8H)-one 1,1-dioxide]: in experiment [1], the “Maximal Response (% P1075)” value came to 79 % P1075 and the EC50 was determined as 66 nM.

Turning to `O=C1CCC2=C1C(c1ccc(F)c(Br)c1)C1=C(COCC1=O)N2` (stereo not drawn) [Example 23, 5-(3-bromo-4-fluorophenyl)-5,7,8,9-tetrahydrocyclopenta [b]pyrano[4,3-e]pyridine-4,6(1H,3H)-dione], in experiment [1] (Cavia porcellus), the EC50 was 40 nM and the Emax was 82%.

For `O=C1COCC2=C1C(c1ccc(F)c(Br)c1)C1=C(COC1=O)N2` (stereo not drawn) [Example 25, 9-(3-bromo-4-fluorophenyl)-5,9-dihydro-3H-furo [3,4-b]pyrano[4,3-e]pyridine-1,8(4H,7H)-dione], in experiment [1] (Cavia porcellus), the EC50 was found to be 9.8 nM and the Emax was found to be 106%.

Regarding `CN1CC2=C(C1=O)C(c1ccc(F)c(Br)c1)C1=C(COCC1=O)N2` (stereo not drawn) [Example 26, 9-(3-bromo-4-fluorophenyl)-2-methyl-2,3,5,9-tetrahydropyrano[3,4-b]pyrrolo[3,4-e]pyridine-1,8(4H,7H)-dione], in experiment [1] (Cavia porcellus), the EC50 worked out at 13 nM and the Emax was found to be 90%.

Turning to `O=C1COCC2=C1C(c1ccc(F)c(Cl)c1)C1=C(CCNC1=O)N2` (stereo not drawn) [Example 44, 10-(3-chloro-4-fluorophenyl)-3,4,6,10-tetrahydro-2H-pyrano [3,4-b][1,6]naphthyridine-1,9(5H,8H)-dione], the Emax in experiment [1] (Cavia porcellus) worked out at 96%.

`O=C1COCC2=C1C(c1ccc(Cl)c(Cl)c1)C1=C(CCNC1=O)N2` (stereo not drawn) [Example 45, 10-(3,4-dichlorophenyl)-3,4,6,10-tetrahydro-2H-pyrano [3,4-b][1,6]naphthyridine-1,9(5H,8H)-dione]: in experiment [1] (Cavia porcellus), the EC50 came out at 200 nM and the Emax was 85%.

For the compound `O=C1COCC2=C1C(c1ccc(Cl)c(C(F)(F)F)c1)C1=C(CCNC1=O)N2` (stereo not drawn) [Example 46, 10-[4-chloro-3-(trifluoromethyl)phenyl]-3,4,6,10-tetrahydro-2H-pyrano[3,4-b][1,6]naphthyridine-1,9(5H,8H)-dione], in experiment [1] (Cavia porcellus), the EC50 is 340 nM and the Emax amounted to 83%.

Turning to `O=C1COCC2=C1C(c1ccc(Cl)c([N+](=O)[O-])c1)C1=C(CCNC1=O)N2` (stereo not drawn) [Example 47, 10-(4-chloro-3-nitrophenyl)-3,4,6,10-tetrahydro-2H-pyrano[3,4-b][1,6]naphthyridine-1,9(5H,8H)-dione], in experiment [1] (Cavia porcellus), the EC50 was 490 nM and the Emax was determined as 91%.

In the case of `O=C1COCC2=C1C(c1ccc(Br)c(Br)c1)C1=C(CCNC1=O)N2` (stereo not drawn) [Example 48, 10-(3,4-dibromophenyl)-3,4,6,10-tetrahydro-2H-pyrano[3,4-b][1,6]naphthyridine-1,9(5H,8H)-dione], in experiment [1] (Cavia porcellus), the EC50 is 84 nM and the Emax stood at 91%.

With `O=C1COCC2=C1C(c1csc([N+](=O)[O-])c1)C1=C(CCNC1=O)N2` (stereo not drawn) [Example 49, 10-(5-nitro-3-thienyl)-3,4,6,10-tetrahydro-2H-pyrano [3,4-b][1,6]naphthyridine-1,9(5H,8H)-dione], in experiment [1] (Cavia porcellus), the EC50 came to 2300 nM and the Emax stood at 85%.

With `O=C1CCC2=C1C(c1ccc(F)c(Br)c1)C1=C(CSCC1=O)N2` (stereo not drawn) [Example 51, 5-(3-bromo-4-fluorophenol)-5,7,8,9-tetrahydrocyclopenta [b]thiopyrano[4,3-e]pyridine-4,6(1H,3H)-dione], in experiment [1], the “Maximal Response (% P1075)” value was 88 % P1075 and the EC50 was found to be 120 nM.

`O=C1COCC2=C1C(c1ccc(Cl)c(C(F)(F)F)c1)C1=C(COCC1=O)N2` [Example 56, 5-[4-chloro-3-(trifluoromethyl)phenyl]-5,10-dihydro-1H, 3H-dipyrano[3,4-b:4,3-e]pyridine-4,6(7H,9H)-dione]: in experiment [1], the “Maximal Response (% P1075)” value was determined as 96 % P1075 and the EC50 is 15 nM.

With `O=C1COCC2=C1C(c1ccc(Br)c(Cl)c1)C1=C(COCC1=O)N2` [Example 60, 5-(4-bromo-3-chlorophenyl)-5,10-dihydro-1H,3H-dipyrano[3,4-b:4,3-e]pyridine-4,6(7H,9H)-dione], in experiment [1], the “Maximal Response (% P1075)” value worked out at 88 % P1075 and the EC50 came out at 23 nM.

In the case of `O=C1COCC2=C1C(c1ccc(Cl)c(Br)c1)C1=C(COCC1=O)N2` [Example 61, 5-(3-bromo-4-chlorophenyl)-5,10-dihydro-1H,3H-dipyrano[3,4-b:4,3-e]pyridine-4,6(7H,9H)-dione], in experiment [1], the “Maximal Response (% P1075)” value was determined as 97 % P1075 and the EC50 turned out to be 6.3 nM.

Regarding `O=C1COCC2=C1C(c1ccc(C(F)(F)F)c(I)c1)C1=C(COCC1=O)N2` [Example 62, 5-[3-iodo-4-(trifluoromethyl)phenyl]-5,10-dihydro-1H,3H-dipyrano[3,4-b:4,3-e]pyridine-4,6(7H,9H)-dione], in experiment [1], the “Maximal Response (% P1075)” value stood at 77 % P1075 and the EC50 turned out to be 58 nM.

`CCC(C)(C)N=C(NC#N)Nc1cccnc1` [Example P1075, reference compound]: the stimulated twitch result in the experiment on Landrace Pig Bladder (control agonist, 10^−9 to 10^−5 M, dose dependent) is “completely eliminated the stimulated twitch”.
